Earlier results on one compound are cited in patent US20030225129A1, “Polymorphs of clopidogrel hydrogensulfate” (priority 2002, published 2003).

For one data set, the system named is platelet activity. The following applies: after administration.
The conditions of data set [1]: in vivo.

As for `COC(=O)[C@H](c1ccccc1Cl)N1CCc2sccc2C1` [clopidogrel, methyl (+)-(S)-∝-(o-chlorophenyl)-6,7-dihydrothieno[3,2-c]pyridine-5(4H)-acetate], the “duration of antiplatelet activity” value with platelet activity is listed as “up to ten days after administration”. Moreover, in the data set on platelet aggregation (75 mg of base equivalent versus 325 mg of aspirin), the “effectiveness relative to aspirin at stated dosages” value is recorded as “more effective”. The “effectiveness in blocking platelet aggregation relative to aspirin” value in the data set with platelet aggregation (versus aspirin, even at much lower dosage) is “more effective in blocking platelet aggregation than aspirin”. For the same compound, the “gastrointestinal bleeding relative to aspirin” value in data set [1] was “much less gastrointestinal bleeding than aspirin”.
